The source of these data is US12077503B2, “Substituted cyclic amides and their use as herbicides” (FMC CORPORATION, priority 2015, dated 2024).

Holding throughout (experiment): Test A preemergence
Holding throughout (format): in vivo

Test [1] deals with ragweed (common ragweed, Ambrosia elatior). The conditions noted are these: Ambrosia artemisiifolia, pre-emergence, 240 h; for pest or weed control at 125 g/ha: 125 g ai/ha; for pest or weed control at 500 g/ha: 500 g ai/ha. The essentials:
(§1)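 Preemergence soil spray on seeded pots or post-emergence spray on 1–2 leaf plants, in loam–sand blend. Greenhouse ~10 d. Visual rating 0–100 against untreated plants.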

In test [2] the test system is ryegrass, Italian (Italian ryegrass, Lolium multiflorum). The conditions noted are these: Lolium multiflorum, pre-emergence, 240 h; for pest or weed control at 125 g/ha: 125 g ai/ha; for pest or weed control at 500 g/ha: 500 g ai/ha. A digest of the protocol:
as §1

For test [3], the system named is giant foxtail (Setaria faberii). The conditions noted are these: Setaria faberi, pre-emergence, 240 h; for pest or weed control at 125 g/ha: 125 g ai/ha; for pest or weed control at 500 g/ha: 500 g ai/ha. A digest of the protocol:
as §1

The subject of test [4] is Kochia (Kochia scoparia). The conditions noted are these: Bassia scoparia, pre-emergence, 240 h; for pest or weed control at 125 g/ha: 125 g ai/ha; for pest or weed control at 500 g/ha: 500 g ai/ha. A digest of the protocol: as §1
Test [5] deals with pigweed (Amaranthus retroflexus). As to conditions: Amaranthus retroflexus, pre-emergence, 240 h; for pest or weed control at 125 g/ha: 125 g ai/ha; for pest or weed control at 500 g/ha: 500 g ai/ha.
Test [6] relates to barnyardgrass (Echinochloa crus-galli). The conditions noted are these: Echinochloa crus-galli, pre-emergence, 240 h; for pest or weed control at 125 g/ha: 125 g ai/ha; for pest or weed control at 500 g/ha: 500 g ai/ha. A digest of the protocol: as §1
[7] abbreviates: preemergence, 0 to 100 scale where 0 is no effect and 100 is complete control, read-out: Ragweed plant response rating.
Where [8] appears, read: preemergence, 0 to 100 scale where 0 is no effect and 100 is complete control, read-out: Foxtail, Giant plant response rating.
The mark [9] stands for this setting: preemergence, 0 to 100 scale where 0 is no effect and 100 is complete control, read-out: Kochia plant response rating.
The mark [10] stands for this setting: preemergence, 0 to 100 scale where 0 is no effect and 100 is complete control, read-out: Pigweed plant response rating.
[11] abbreviates: preemergence, 0 to 100 scale where 0 is no effect and 100 is complete control, read-out: Barnyardgrass plant response rating.
Where [12] appears, read: preemergence, visual rating after approx. 10 d, 0 to 100 scale where 0 is no effect and 100 is complete control, read-out: Plant response rating, Ragweed.
The mark [13] stands for this setting: preemergence, visual rating after approx. 10 d, 0 to 100 scale where 0 is no effect and 100 is complete control, read-out: Plant response rating, Ryegrass, Italian.
The mark [14] stands for this setting: preemergence, visual rating after approx. 10 d, 0 to 100 scale where 0 is no effect and 100 is complete control, read-out: Plant response rating, Foxtail, Giant.
Setting [15] is: preemergence, visual rating after approx. 10 d, 0 to 100 scale where 0 is no effect and 100 is complete control, read-out: Plant response rating, Kochia.
[16] abbreviates: preemergence, visual rating after approx. 10 d, 0 to 100 scale where 0 is no effect and 100 is complete control, read-out: Plant response rating, Pigweed.
The mark [17] stands for this setting: preemergence, visual rating after approx. 10 d, 0 to 100 scale where 0 is no effect and 100 is complete control, read-out: Plant response rating, Barnyardgrass.
The mark [18] stands for this setting: preemergence, 0 to 100 scale, 0 = no effect, 100 = complete control, read-out: Plant response rating, Ragweed.
Setting [19] is: preemergence, 0 to 100 scale, 0 = no effect, 100 = complete control, read-out: Plant response rating, Ryegrass, Italian.
The mark [20] stands for this setting: preemergence, 0 to 100 scale, 0 = no effect, 100 = complete control, read-out: Plant response rating, Foxtail, Giant.
The mark [21] stands for this setting: preemergence, 0 to 100 scale, 0 = no effect, 100 = complete control, read-out: Plant response rating, Kochia.
[22] abbreviates: preemergence, 0 to 100 scale, 0 = no effect, 100 = complete control, read-out: Plant response rating, Pigweed.
Setting [23] is: preemergence, 0 to 100 scale, 0 = no effect, 100 = complete control, read-out: Plant response rating, Barnyardgrass.

The structures appear in SMILES notation. Read-outs that look alike come from different tables or passages of the source.

Turning to `CSc1ccccc1NC(=O)[C@H]1C(=O)N(C)C[C@@H]1c1ccc(F)cc1` [Compound 1236], the pest or weed control at 125 g/ha amounted to 0% in test [1] (preemergence, visual injury rating, 0 to 100 scale where 0 is no effect and 100 is complete control, approximately 10 d, read-out: Ragweed plant response rating); 30% in test [2] (preemergence, visual injury rating, 0 to 100 scale where 0 is no effect and 100 is complete control, approximately 10 d, read-out: Ryegrass, Italian plant response rating); 90% in test [3] (preemergence, visual injury rating, 0 to 100 scale where 0 is no effect and 100 is complete control, approximately 10 d, read-out: Foxtail, Giant plant response rating); 20% in test [4] (preemergence, visual injury rating, 0 to 100 scale where 0 is no effect and 100 is complete control, approximately 10 d, read-out: Kochia plant response rating); 60% in test [5] (preemergence, visual injury rating, 0 to 100 scale where 0 is no effect and 100 is complete control, approximately 10 d, read-out: Pigweed plant response rating); 90% in test [6] (preemergence, visual injury rating, 0 to 100 scale where 0 is no effect and 100 is complete control, approximately 10 d, read-out: Barnyardgrass plant response rating). Further, the pest or weed control at 500 g/ha in test [1] (setting [7]) stood at 30%; in test [2] (preemergence, 0 to 100 scale where 0 is no effect and 100 is complete control, read-out: Ryegrass, Italian plant response rating), 80%; in test [3] (setting [8]) it was 100%; in test [4] (setting [9]), 90%; in test [5] (setting [10]), 90%; in test [6] (setting [11]) it was 100%.
Regarding `CN1C[C@H](c2ccc3c(c2)CCO3)[C@@H](C(=O)Nc2cccc(F)c2F)C1=O` [Compound 1324], the pest or weed control at 500 g/ha came to 90% in test [1] (setting [7]); 100% in test [3] (setting [8]); 90% in test [4] (setting [9]); 40% in test [5] (setting [10]); 100% in test [6] (setting [11]). Also, the pest or weed control at 125 g/ha in test [1] (Preemergence, 0 to 100 scale (0 no effect, 100 complete control), read-out: Plant response rating, Ragweed) turned out to be 90%; in test [2] (Preemergence, 0 to 100 scale (0 no effect, 100 complete control), read-out: Plant response rating, Ryegrass, Italian) it was 20%; in test [3] (Preemergence, 0 to 100 scale (0 no effect, 100 complete control), read-out: Plant response rating, Foxtail, Giant), 90%; in test [4] (Preemergence, 0 to 100 scale (0 no effect, 100 complete control), read-out: Plant response rating, Kochia), 90%; in test [5] (Preemergence, 0 to 100 scale (0 no effect, 100 complete control), read-out: Plant response rating, Pigweed), 0%; in test [6] (Preemergence, 0 to 100 scale (0 no effect, 100 complete control), read-out: Plant response rating, Barnyardgrass), 90%.
Consider `Cc1cc(F)cc([C@H]2CN(C)C(=O)[C@@H]2C(=O)Nc2cccc(F)c2C#N)c1` [Compound 800], for which the pest or weed control at 125 g/ha is 0% in test [1] (setting [12]); 40% in test [2] (setting [13]); 90% in test [3] (setting [14]); 0% in test [4] (setting [15]); 20% in test [5] (setting [16]); 90% in test [6] (setting [17]). Further, the pest or weed control at 31 g/ha in test [1] (Preemergence, 31 g ai/ha, 0 to 100 scale (0 no effect, 100 complete control), read-out: Plant response rating, Ragweed) came to 0%; in test [2] (Preemergence, 31 g ai/ha, 0 to 100 scale (0 no effect, 100 complete control), read-out: Plant response rating, Ryegrass, Italian), 0%; in test [3] (Preemergence, 31 g ai/ha, 0 to 100 scale (0 no effect, 100 complete control), read-out: Plant response rating, Foxtail, Giant), 80%; in test [4] (Preemergence, 31 g ai/ha, 0 to 100 scale (0 no effect, 100 complete control), read-out: Plant response rating, Kochia) it was 0%; in test [5] (Preemergence, 31 g ai/ha, 0 to 100 scale (0 no effect, 100 complete control), read-out: Plant response rating, Pigweed), 0%; in test [6] (Preemergence, 31 g ai/ha, 0 to 100 scale (0 no effect, 100 complete control), read-out: Plant response rating, Barnyardgrass), 80%.
As for `CN1C[C@H](c2ccc(F)c(OC(F)(F)C(F)F)c2)[C@@H](C(=O)Nc2ccccc2F)C1=O` [Compound 740], the pest or weed control at 125 g/ha was 40% in test [1] (setting [12]); 60% in test [2] (setting [13]); 100% in test [3] (setting [14]); 80% in test [4] (setting [15]); 70% in test [5] (setting [16]); 90% in test [6] (setting [17]). Besides, the pest or weed control at 500 g/ha in test [1] (setting [18]) stood at 50%; in test [2] (setting [19]), 80%; in test [3] (setting [20]), 100%; in test [4] (setting [21]), 90%; in test [5] (setting [22]), 80%; in test [6] (setting [23]), 90%.
For `O=C1NC[C@H](c2csc3ccccc23)[C@H]1C(=O)Nc1ccccc1F` [Compound 750], the pest or weed control at 125 g/ha was determined as 0% in test [1] (setting [12]); 0% in test [2] (setting [13]); 50% in test [3] (setting [14]); 0% in test [4] (setting [15]); 0% in test [5] (setting [16]); 80% in test [6] (setting [17]). In addition, the pest or weed control at 500 g/ha in test [1] (setting [18]) was 0%; in test [2] (setting [19]), 20%; in test [3] (setting [20]) it was 90%; in test [4] (setting [21]) it was 0%; in test [5] (setting [22]) it was 0%; in test [6] (setting [23]), 90%.
